Here are results for ten molecules from patent US20230295149A1, “MONOBACTAM COMPOUNDS, THEIR PREPARATION AND USE AS ANTIBACTERIAL AGENTS” (NINGXIA ACADEMY OF AGRICULTURE AND FORESTRY SCIENCES, priority 2020, published 2023).

Assay in all cases: MIC determination, broth microdilution
Holding throughout (format): cell-based

In one test the test system is A. baumannii 19606. To be noted: Acinetobacter baumannii, 37° C., 18-24 hours, read-out: Strain8 MIC. The method, then:
(§1) Compounds of this invention were tested for antimicrobial activity by determining minimum inhibitory concentrations (MICs, in μg/mL) using the broth microdilution method according to the guidelines of the Clinical Laboratories and Standards Institute (“Methods for Dilution Antimicrobial Susceptibility Tests for Bacteria that Grow Aerobically”, Approved standard, 7th ed., Clinical and Laboratory Standards Institute (CLSI) Document M7-A8, Wayne, Pa., USA, 2009.). Test compounds were dissolved in DMSO. The compounds were then diluted in microbial growth medium (Mueller Hinton Broth II, cation adjusted) resulting in a final concentration range of 0.063-64 μg/mL in serial two-fold dilution. In all cases the final DMSO concentration was less than 0.5%. Bacteria were added to 96-well microtitre plates containing the two-fold dilutions of the compounds; the final cell density was approximately 5×10^5 colony forming units/mL (CFU/mL). Plates were incubated at 37° C. for 18-24 hours and read visually. The MIC, i.e. the lowest concentration of the test compound that inhibited visible growth of the bacteria, was recorded. The same assay conditions were used when the compounds of this invention were tested in combination with—lactamase inhibitors. While the compounds of this invention were serially diluted as described above, a constant concentration of the inhibitor of 4 mg/L was used. Bacterial strains that were used to evaluate the antimicrobial activity using the MIC determination included but were not limited to E. coli clinical isolate, E. coli 8739, K. pneumoniae clinical isolate, K. pneumoniae 700603, E. cloacae clinical isolate, E. cloacae 700323, A. baumannii clinical isolate, A. baumannii 19606, P. aeruginosa clinical isolate, P. aeruginosa 9027.

For test [1], the system named is A. baumannii clinical isolate. The following applies: Acinetobacter baumannii, 37° C., 18-24 hours, read-out: Strain 7 MIC. The method, then:
as §1

A further test concerns E. cloacae 700323. To be noted: Enterobacter cloacae, 37° C., 18-24 hours, read-out: Strain 6 MIC. The method, then: as §1
Test [2] deals with E. cloacae clinical isolate. The following applies: Enterobacter cloacae, 37° C., 18-24 hours, read-out: Strain5 MIC. The method, then: as §1
The next test has as its system E. coli 8739. The following applies: Escherichia coli, 37° C., 18-24 hours, read-out: Strain 2 MIC. The method, then:
as §1

For another test, the system named is E. coli clinical isolate. The following applies: Escherichia coli, 37° C., 18-24 hours, read-out: Strain 1 MIC. The method, then: as §1
The next test concerns K. pneumoniae 700603. To be noted: Klebsiella pneumoniae, 37° C., 18-24 hours, read-out: Strain 4 MIC. The method, then: as §1
The subject of test [3] is K. pneumoniae clinical isolate. To be noted: Klebsiella pneumoniae, 37° C., 18-24 hours, read-out: Strain 3 MIC. The method, then: as §1
A further test relates to P. aeruginosa 9027. To be noted: Pseudomonas aeruginosa, 37° C., 18-24 hours, read-out: Strain 10 MIC. The method, then:
as §1

The subject of test [4] is P. aeruginosa clinical isolate. To be noted: Pseudomonas aeruginosa, 37° C., 18-24 hours, read-out: Strain 9 MIC. The method, then: as §1

Structures are written as SMILES.

One may read the MIC as the least concentration at which growth counts as inhibited.

With `CC1(C)[C@H](NC(=O)/C(=N\O[C@@H](COc2ccc(C(=N)NC3CCNCC3)cc2)C(=O)O)c2nsc(N)n2)C(=O)N1OS(=O)(=O)O` [Example 2, (S)-2-((((Z)-1-(5-Amino-1,2,4-thiadiazol-3-yl)-2-(((S)-2,2-dimethyl-4-oxo-1-(sulfooxy)azetidin-3-yl)amino)-2-oxoethylidene)amino)oxy)-3-(4-(N-(piperidin-4-yl)carbamimidoyl)phenoxy)propanoic acid], the MIC in the test on A. baumannii 19606 is 32 µg/mL; in test [1], 8 µg/mL; in the test on E. cloacae 700323, 64 µg/mL; in test [2] it was 8 µg/mL; in the test with E. coli 8739 it was 0.125 µg/mL; in the test on E. coli clinical isolate, 0.5 µg/mL. Further, the minimal inhibitory concentration (MIC) with K. pneumoniae 700603 was found to be 64 µg/mL; in [3], 16 µg/mL; in the test on P. aeruginosa 9027, 1 µg/mL; in test [4], 1 µg/mL.
Take `CC1(C)[C@H](NC(=O)/C(=N\O[C@@H](COc2ccc(C(=N)N[C@@H]3CCNC3)cc2)C(=O)O)c2nsc(N)n2)C(=O)N1OS(=O)(=O)O` [Example 12, (S)-2-((((Z)-1-(5-Amino-1,2,4-thiadiazol-3-yl)-2-(((S)-2,2-dimethyl-4-oxo-1-(sulfooxy)azetidin-3-yl)amino)-2-oxoethylidene)amino)oxy)-3-(4-(N—((R)-pyrrolidin-3-yl)carbamimidoyl)phenoxy)propanoic acid]: the MIC in the test on A. baumannii 19606 is 8 µg/mL; in test [1], 16 µg/mL; in the test on E. cloacae 700323, 8 µg/mL; in [2], 8 µg/mL; in the test on E. coli 8739, 1 µg/mL; in the test with E. coli clinical isolate, 8 µg/mL. For the same molecule, the minimal inhibitory concentration (MIC) turned out to be 8 µg/mL with K. pneumoniae 700603, 4 µg/mL in test [3], 2 µg/mL with P. aeruginosa 9027 and 2 µg/mL in test [4].
On to `CC(C)(O/N=C(\C(=O)N[C@@H]1C(=O)N2C(C(=O)[O-])=C(C[n+]3ccccc3)CS[C@H]12)c1csc(N)n1)C(=O)O` [CAZ, Ceftazidime, reference compound], for which the minimum inhibitory concentration (MIC) (in the test on A. baumannii 19606; in [1]; with E. cloacae 700323; in test [2]; in the test with E. coli 8739; in the test with E. coli clinical isolate) was more than 64 µg/mL in each case. Further, the minimal inhibitory concentration (MIC) (in the test with K. pneumoniae 700603; in test [3]; with P. aeruginosa 9027; in [4]) was more than 64 µg/mL in each case.
Consider `CC1(C)[C@H](NC(=O)/C(=N\O[C@@H](COc2ccc(C(=N)N[C@H]3CCNC3)cc2)C(=O)O)c2nc(N)sc2Cl)C(=O)N1OS(=O)(=O)O` [Example 5, (S)-2-((((Z)-1-(2-Amino-5-chlorothiazol-4-yl)-2-(((S)-2,2-dimethyl-4-oxo-1-(sulfooxy)azetidin-3-yl)amino)-2-oxoethylidene)amino)oxy)-3-(4-(N—((S)-pyrrolidin-3-yl)carbamimidoyl)phenoxy)propanoic acid], for which the minimum inhibitory concentration (MIC) is 4 µg/mL in the test on A. baumannii 19606; 8 µg/mL in test [1]; 4 µg/mL with E. cloacae 700323; 2 µg/mL in [2]; 0.25 µg/mL in the test on E. coli 8739; 0.25 µg/mL in the test on E. coli clinical isolate. The MIC worked out at 4 µg/mL in the test on K. pneumoniae 700603, 1 µg/mL in [3], 0.5 µg/mL with P. aeruginosa 9027 and 1 µg/mL in test [4].
Consider `CC1(C)[C@H](NC(=O)/C(=N\O[C@@H](COc2ccc(C(=N)NC3CCNCC3)cc2)C(=O)O)c2nc(N)sc2Cl)C(=O)N1OS(=O)(=O)O` [Example 1, (S)-2-((((Z)-1-(2-Amino-5-chlorothiazol-4-yl)-2-(((S)-2,2-dimethyl-4-oxo-1-(sulfooxy)azetidin-3-yl)amino)-2-oxoethylidene)amino)oxy)-3-(4-(N-(piperidin-4-yl)carbamimidoyl)phenoxy)propanoic acid], for which the minimum inhibitory concentration (MIC) is 8 µg/mL in the test with A. baumannii 19606; 16 µg/mL in test [1]; 8 µg/mL with E. cloacae 700323; 8 µg/mL in test [2]; 1 µg/mL with E. coli 8739; 8 µg/mL with E. coli clinical isolate. Moreover, the MIC in the test on K. pneumoniae 700603 stood at 8 µg/mL; in [3], 4 µg/mL; in the test on P. aeruginosa 9027, 2 µg/mL; in test [4], 2 µg/mL.
Take `C[C@H]1[C@H](NC(=O)/C(=N\OC(C)(C)C(=O)O)c2csc(N)n2)C(=O)N1S(=O)(=O)O` [AZT, Aztreonam, reference compound]: the minimal inhibitory concentration (MIC) in the test on A. baumannii 19606 is 32 µg/mL; in test [1] it was more than 64 µg/mL; in the test on E. cloacae 700323, more than 64 µg/mL; in test [2], more than 64 µg/mL; with E. coli 8739, 16 µg/mL; in the test with E. coli clinical isolate, more than 64 µg/mL. Moreover, the minimum inhibitory concentration (MIC) in the test on K. pneumoniae 700603 is 64 µg/mL; in test [3], 64 µg/mL; in the test on P. aeruginosa 9027, 16 µg/mL; in test [4], more than 64 µg/mL.
Take `CC1(C)[C@H](NC(=O)/C(=N\O[C@@H](COc2ccc(C(=N)NC3CNC3)cc2)C(=O)O)c2nsc(N)n2)C(=O)N1OS(=O)(=O)O` [Example 7, (S)-2-((((Z)-1-(5-Amino-1,2,4-thiadiazol-3-yl)-2-(((S)-2,2-dimethyl-4-oxo-1-(sulfooxy)azetidin-3-yl)amino)-2-oxoethylidene)amino)oxy)-3-(4-(N-(azetidin-3-yl)carbamimidoyl)phenoxy)propanoic acid]: the minimum inhibitory concentration (MIC) was 8 µg/mL with A. baumannii 19606; 4 µg/mL in [1]; 16 µg/mL in the test on E. cloacae 700323; 8 µg/mL in test [2]; 0.25 µg/mL in the test on E. coli 8739; 0.125 µg/mL in the test on E. coli clinical isolate. The MIC with K. pneumoniae 700603 came to 32 µg/mL; in [3] it was 2 µg/mL; with P. aeruginosa 9027, 0.5 µg/mL; in [4] it was 0.5 µg/mL.
Turning to `CC1(C)[C@H](NC(=O)/C(=N\O[C@@H](COc2ccc(C(=N)NC3CNC3)cc2)C(=O)O)c2nc(N)sc2Cl)C(=O)N1OS(=O)(=O)O` [Example 8, (S)-2-((((Z)-1-(2-Amino-5-chlorothiazol-4-yl)-2-(((S)-2,2-dimethyl-4-oxo-1-(sulfooxy)azetidin-3-yl)amino)-2-oxoethylidene)amino)oxy)-3-(4-(N-(azetidin-3-yl)carbamimidoyl)phenoxy)propanoic acid], the minimal inhibitory concentration (MIC) in the test on A. baumannii 19606 is 4 µg/mL; in [1], 8 µg/mL; in the test with E. cloacae 700323, 8 µg/mL; in test [2], 8 µg/mL; in the test with E. coli 8739 it was 0.25 µg/mL; in the test on E. coli clinical isolate it was 0.5 µg/mL. The MIC in the test on K. pneumoniae 700603 was 8 µg/mL; in test [3], 8 µg/mL; in the test on P. aeruginosa 9027 it was 1 µg/mL; in [4], 1 µg/mL.
Take `CC1(C)[C@H](NC(=O)/C(=N\O[C@@H](COc2ccc(C(=N)N[C@H]3CCNC3)cc2)C(=O)O)c2nsc(N)n2)C(=O)N1OS(=O)(=O)O` [Example 6, (S)-2-((((Z)-1-(5-Amino-1,2,4-thiadiazol-3-yl)-2-(((S)-2,2-dimethyl-4-oxo-1-(sulfooxy)azetidin-3-yl)amino)-2-oxoethylidene)amino)oxy)-3-(4-(N—((S)-pyrrolidin-3-yl)carbamimidoyl)phenoxy)propanoic acid]: the MIC in the test on A. baumannii 19606 worked out at 16 µg/mL; in test [1], 4 µg/mL; in the test on E. cloacae 700323, 32 µg/mL; in test [2] it was 4 µg/mL; in the test on E. coli 8739, 0.125 µg/mL; with E. coli clinical isolate, 0.5 µg/mL. Also, the MIC was 64 µg/mL in the test with K. pneumoniae 700603, 1 µg/mL in test [3], 0.5 µg/mL in the test with P. aeruginosa 9027 and 2 µg/mL in [4].
Regarding `CC1(C)[C@H](NC(=O)/C(=N\O[C@@H](COc2ccc(C(=N)N[C@@H]3CCCNC3)cc2)C(=O)O)c2nc(N)sc2Cl)C(=O)N1OS(=O)(=O)O` [Example 3, (S)-2-((((Z)-1-(2-Amino-5-chlorothiazol-4-yl)-2-(((S)-2,2-dimethyl-4-oxo-1-(sulfooxy)azetidin-3-yl)amino)-2-oxoethylidene)amino)oxy)-3-(4-(N—((R)-piperidin-3-yl)carbamimidoyl)phenoxy)propanoic acid], the minimum inhibitory concentration (MIC) with A. baumannii 19606 is 8 µg/mL; in [1], 16 µg/mL; with E. cloacae 700323, 8 µg/mL; in [2], 8 µg/mL; in the test on E. coli 8739 it was 0.5 µg/mL; in the test with E. coli clinical isolate, 2 µg/mL. Moreover, the minimum inhibitory concentration (MIC) with K. pneumoniae 700603 was 8 µg/mL; in test [3], 2 µg/mL; in the test with P. aeruginosa 9027, 1 µg/mL; in test [4] it was 4 µg/mL.
